Test: Particle size distribution by Malvern Mastersizer S particle size analyzer
Type: physicochemical
Details: for AFTER MILLING D[v, 0..5] / AFTER MILLING D[v, 0.9]: after milling 1 hour, Specac Specamill, three agate balls, maximum amplitude; for BEFORE MILLING D[v, 0.9]: in µm (unit assumed); for particle size D[v, 0.5] / particle size D[v, 0.9]: crystals as isolated after crystallization from isobutyl acetate and drying, by volume, mean of nine readings, hydrochloride
Experimental: The particle size for cinacalcet hydrochloride was measured using a Malvern Mastersizer S particle size analyzer with an MS1 Small Volume Sample Dispersion Unit stirred cell. A 300RF mm lens and a beam length of 2.4 mm were used. Samples for analysis were prepared by dispersing a weighed amount of cinacalcet hydrochloride (approximately 60 mg) in 20 mL of sample dispersant, previously prepared by dilution of 1.5 g of Soybean Lecithin to 200 mL with Isopar G. The suspension was delivered drop-wise to the background-corrected measuring cell filled with dispersant (Isopar G) until the obscuration reached the desired level. Nine repeated readings of the volume distributions were taken. For characterization, the values of D50 and D90 (by volume) were selected and reported as the mean of the nine values measured.

[1] = listed as Cinacalcet hydrochloride from Example 7, hydrochloride
[2] = listed as Cinacalcet hydrochloride from Example 9, hydrochloride
[3] = listed as Cinacalcet hydrochloride from Example 4, hydrochloride

particle size D[v, 0.5] [μm]	particle size D[v, 0.9] [μm]	SMILES	also measured
70.3	431.7	C[C@@H](NCCCc1cccc(C(F)(F)F)c1)c1cccc2ccccc12.Cl [Example 7, cinacalcet hydrochloride]	AFTER MILLING D[v, 0..5] [1]: 21.2 µm; AFTER MILLING D[v, 0.9] [1]: 83.3 µm; BEFORE MILLING D[v, 0..5] [1]: 70.3 µm; BEFORE MILLING D[v, 0.9] [1]: 431.7
74.0	518.3	C[C@@H](NCCCc1cccc(C(F)(F)F)c1)c1cccc2ccccc12.Cl [Example 9, cinacalcet hydrochloride]	AFTER MILLING D[v, 0..5] [2]: 25.1 µm; AFTER MILLING D[v, 0.9] [2]: 76.7 µm; BEFORE MILLING D[v, 0..5] [2]: 74 µm; BEFORE MILLING D[v, 0.9] [2]: 518.3
76.4	456.0	C[C@@H](NCCCc1cccc(C(F)(F)F)c1)c1cccc2ccccc12.Cl [Example 5, cinacalcet hydrochloride]	
65.0	392.3	C[C@@H](NCCCc1cccc(C(F)(F)F)c1)c1cccc2ccccc12.Cl [Example 6, cinacalcet hydrochloride]	
67.2	459.0	C[C@@H](NCCCc1cccc(C(F)(F)F)c1)c1cccc2ccccc12.Cl [Example 8, cinacalcet hydrochloride]	
57.7	403.9	C[C@@H](NCCCc1cccc(C(F)(F)F)c1)c1cccc2ccccc12.Cl [Example 4, cinacalcet hydrochloride]	AFTER MILLING D[v, 0..5] [3]: 25.7 µm; AFTER MILLING D[v, 0.9] [3]: 91.8 µm; BEFORE MILLING D[v, 0..5] [3]: 57.7 µm; BEFORE MILLING D[v, 0.9] [3]: 403.9
23.4	95.4	C[C@@H](NCCCc1cccc(C(F)(F)F)c1)c1cccc2ccccc12.Cl [Example 1, cinacalcet hydrochloride]	
49.8	387.9	C[C@@H](NCCCc1cccc(C(F)(F)F)c1)c1cccc2ccccc12.Cl [Example 3, cinacalcet hydrochloride]	
20.7	86.1	C[C@@H](NCCCc1cccc(C(F)(F)F)c1)c1cccc2ccccc12.Cl [Example 2, cinacalcet hydrochloride]	
99.8	466.9	C[C@@H](NCCCc1cccc(C(F)(F)F)c1)c1cccc2ccccc12.Cl [Example 11, cinacalcet hydrochloride]	
